SMILES strings stand for the structures. “And” between values parts separate entries of the source, which are not always exact repeats. Equal values may be shown once.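 Five concentrations, 48 hours, 96-well plates. At the GI50, growth is halved. The concentration for full growth arrest is given as TGI.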

Test systems include MDA-N; HOP-18 NSCLC; LXFL 529 NSCLC; DMS 114 small cell lung; M19-MEL melanoma; SNB-78 CNS; DMS 273 small cell lung; DLD-1 colon; RXF-631 renal.
Assay in all cases: NCI-60 cell line screen, 48 h

Regarding `C/C(=N\NC(=S)SCc1ccccc1)c1ccccn1`, the TGI in the test on MDA-N amounted to 15.3 µM.
Turning to `N#CC1(C#N)C2C=CC(c3coc4cccc2c34)C1(C#N)C#N` (stereo not given), the TGI with HOP-18 NSCLC is 30.4 µM; in the test on LXFL 529 NSCLC, 21.2 µM; in the test on DMS 114 small cell lung, 9.98 µM; in the test with M19-MEL melanoma it was 8.86 µM; in the test on SNB-78 CNS, 43.1 µM; with DMS 273 small cell lung it was 31.6 µM. This compound also displayed a TGI with DLD-1 colon of 4.17 µM.
As to `O=C(CCn1[nH]c(=O)c(Cl)c(Cl)c1=O)NNC(=O)C[n+]1ccccc1`, the TGI in the test with HOP-18 NSCLC, with LXFL 529 NSCLC, in the test on DMS 114 small cell lung, in the test on M19-MEL melanoma, in the test on DMS 273 small cell lung and in the test with RXF-631 renal was over 100 µM each time. Also, the TGI with DLD-1 colon is over 100 µM.
On to `O=C1C2CCN(CC2)C1(CO)CO`, for which, in the test with MDA-N, the TGI is over 100 µM.
For `CCOC(=O)c1cnc2c(ccc3ncccc32)c1NCCCN(CC)CC`, the TGI with HOP-18 NSCLC, in the test on LXFL 529 NSCLC, with M19-MEL melanoma, with SNB-78 CNS, with DMS 273 small cell lung and in the test on DLD-1 colon was over 100 µM in each case.
In the case of `CC(C(N)C(=O)NC(C(=O)O)C1OC(n2ccc(=O)[nH]c2=O)C(O)C1O)C(O)c1ccc(O)cn1` (stereo not given), the TGI in the test on MDA-N was over 100 µM.
`O=C1OC(=O)C2CCCC3CCCC1C32` (stereo not given) registered a TGI with MDA-N of over 100 µM.
In the case of `CCOC(=O)C(CC/C=C\c1ccccc1)N1CCC[C@H]1C(=O)OC` (stereo not given in full), the TGI in the test on HOP-18 NSCLC, with LXFL 529 NSCLC, in the test on DMS 114 small cell lung, with M19-MEL melanoma, in the test on SNB-78 CNS and in the test on DMS 273 small cell lung was over 100 µM each time. In the test with DLD-1 colon, this compound had a TGI of over 100 µM.
In the case of `CCCCCCCCCCCCCCCCCCOCC(CCP(=O)(CP(=O)(O)O)Oc1ccccc1)OCCCCCCCCCCCCCCCCCC` (stereo not given), the TGI in the test with MDA-N is over 100 µM.
For `CC(=O)O[C@@]1(C)[C@@H](C)C(=O)O[C@@H]2CCN3CC=C(COC(=O)[C@]1(C)O)[C@H]23`, the TGI in the test on LXFL 529 NSCLC, in the test on DMS 114 small cell lung, in the test with M19-MEL melanoma, with DMS 273 small cell lung and in the test on DLD-1 colon was over 100 µM throughout.
For the compound `CN(Cc1cc(Br)cc(Br)c1O)Cc1c(O)ccc2ccccc12`, the TGI in the test with MDA-N is 39.9 µM.
The same measure, in the same setting: the result for `CSC(=S)OC1CC(n2cnc3c(NC(=O)c4ccccc4)ncnc32)OC1CO[Si](C)(C)C(C)(C)C` (stereo not given) reads 47.4 µM.
For `CC(C)(C)c1ccc(OCCOCCOc2ccc(C(C)(C)C)cc2S(=O)(=O)Nc2ccc([N+](=O)[O-])cc2)c(S(=O)(=O)Nc2ccc([N+](=O)[O-])cc2)c1`, the TGI in the test on HOP-18 NSCLC, in the test with DMS 114 small cell lung, in the test on M19-MEL melanoma, in the test on SNB-78 CNS, in the test on DMS 273 small cell lung and in the test on RXF-631 renal was over 100 µM in each case. Besides, the TGI in the test with DLD-1 colon is over 100 µM.
With `CC1=C(O)/C(=C/C(C)CCC/C(C)=C/C=C/C(C)CCCc2ccoc2)OC1=O` (stereo not given), the TGI in the test on LXFL 529 NSCLC, in the test with DMS 114 small cell lung, in the test with M19-MEL melanoma, in the test with SNB-78 CNS, in the test on DMS 273 small cell lung and with DLD-1 colon was over 100 µM each time.
In the case of `Cc1cccc2c1CCC21OC(=O)c2c1ccc1ccccc21` (stereo not given), the TGI in the test with HOP-18 NSCLC is over 100 µM; in the test on LXFL 529 NSCLC, over 100 µM; in the test on DMS 114 small cell lung, 72.4 µM; with M19-MEL melanoma, over 100 µM; with DMS 273 small cell lung, 91.5 µM; with RXF-631 renal, 50.2 µM. The compound also yielded a TGI with DLD-1 colon of over 100 µM.
As to `COC(=O)C12OCC34C(CC5C(C)C6=CC(=O)OC6=CC5(C)C3C(O)C1O)OC(=O)C(O)C24` (stereo not given), the GI50 in the test on HOP-18 NSCLC is 0.929 µM; in the test with LXFL 529 NSCLC, 0.0379 µM; with DMS 114 small cell lung, 0.0441 µM; in the test on M19-MEL melanoma, 0.133 µM; with SNB-78 CNS, 0.402 µM; in the test with DMS 273 small cell lung, 0.0707 µM. Also, the TGI with LXFL 529 NSCLC is 0.737 µM and 1.36 µM; with DMS 114 small cell lung it was 0.527 µM and 4.35 µM; in the test on M19-MEL melanoma, 0.723 µM and 2.2 µM; in the test with SNB-78 CNS, 8.31 µM; in the test with DMS 273 small cell lung, 0.528 µM and 0.359 µM.
On to `Cn1c(N)nc(=O)c2c1N(C1OC(CO)C(O)C1O)CN2Cc1ccccc1` (stereo not given), for which the TGI with HOP-18 NSCLC, with LXFL 529 NSCLC, in the test on DMS 114 small cell lung, with M19-MEL melanoma, in the test with SNB-78 CNS and with DMS 273 small cell lung was over 100 µM throughout. Moreover, the TGI in the test on RXF-631 renal and in the test on DLD-1 colon was over 100 µM each time.
Take `COc1ccc2c3c(c(C(=O)c4ccccc4)oc13)CCC2`: the TGI with HOP-18 NSCLC, in the test on LXFL 529 NSCLC, in the test with DMS 114 small cell lung, with M19-MEL melanoma, with SNB-78 CNS and in the test on DMS 273 small cell lung was over 100 µM each time. Besides, the TGI in the test on RXF-631 renal and in the test on DLD-1 colon was over 100 µM each time.
On to `CC(C)=CCC/C(C)=C\CCC1(C)OC(=O)C2CC21` (stereo not given), for which, in the test with MDA-N, the GI50 was > 100 µM and 23.8 µM; the TGI was > 100 µM and 85.1 µM.
Take `CC1=C(/C=C/C(C)=C/C=C/C(C)=C/C(=O)O)C(C)(C)CCC1`: the TGI in the test on HOP-18 NSCLC, in the test with LXFL 529 NSCLC, with DMS 114 small cell lung, with MDA-N, in the test with M19-MEL melanoma and in the test on DMS 273 small cell lung was over 100 µM throughout. In the test with DLD-1 colon, this compound yielded a TGI of over 100 µM.
As for `COc1ccc2oc(C(=O)O)c3c2c1CCC3CCC(=O)O` (stereo not given), the TGI in the test with LXFL 529 NSCLC, in the test on DMS 114 small cell lung, in the test with M19-MEL melanoma, in the test with SNB-78 CNS, in the test with DMS 273 small cell lung and with RXF-631 renal was over 100 µM each time. Besides, in the test on DLD-1 colon, the TGI is over 100 µM.
For `O=C(O/N=C1/CCC/C1=C\c1ccccc1)c1ccc(Cl)c(Cl)c1`, the TGI in the test with HOP-18 NSCLC, in the test with LXFL 529 NSCLC, in the test with DMS 114 small cell lung, with M19-MEL melanoma, in the test with SNB-78 CNS and with DMS 273 small cell lung was over 100 µM in each case. Also, the TGI in the test with RXF-631 renal and with DLD-1 colon was over 100 µM in each case.
In the case of `COc1cc(C2=N/C(=C/c3cccs3)C(=O)O2)cc(OC)c1OC`, the TGI in the test with MDA-N is over 100 µM.
On to `CSc1snc2sc3c(Cl)nnnc3c12`, for which the TGI stood at 33.9 µM with HOP-18 NSCLC; 4.85 µM with LXFL 529 NSCLC; 29 µM in the test on DMS 114 small cell lung; 24.1 µM in the test with M19-MEL melanoma; 38.1 µM in the test on SNB-78 CNS; 23.9 µM in the test with DMS 273 small cell lung. Besides, the TGI came out at 38.4 µM with RXF-631 renal and 22.7 µM in the test on DLD-1 colon.
`O=C(N/N=C1\C(=O)N(c2nccs2)C(=O)C(=O)C1c1nc2ccccc2s1)c1ccccc1O` (stereo not given): the TGI is 77.4 µM with HOP-18 NSCLC; over 100 µM in the test with LXFL 529 NSCLC; over 100 µM in the test with DMS 114 small cell lung; over 100 µM in the test on M19-MEL melanoma; over 100 µM in the test on SNB-78 CNS; over 100 µM in the test on DMS 273 small cell lung. This compound showed a TGI with DLD-1 colon of over 100 µM.
Turning to `O=C(CC(=O)c1cccc2ccccc12)C(=O)NC1C2CC3CC(C2)CC1C3` (stereo not given), the TGI in the test on HOP-18 NSCLC, in the test on LXFL 529 NSCLC, in the test with DMS 114 small cell lung, in the test on M19-MEL melanoma, in the test on SNB-78 CNS and in the test with DMS 273 small cell lung was over 100 µM each time. The TGI in the test on RXF-631 renal and in the test with DLD-1 colon was over 100 µM throughout.
Compound `O=NNc1ccc(Sc2ccc(NN=O)cn2)nc1` registered a TGI with MDA-N of over 100 µM.
